{"source": "patent US20020172704A1", "about": "“Planting method and biodegradable material for preventing pests” (priority 2001, published 2002)", "test_system": "golden apple snail (Pomacea canaliculata (Lamarck))", "assay": "Hurting rate and death rate of golden apple snails on SDS-added paper mat round boards on wet paddy soil in Petri dishes", "format": "in vivo", "conditions": "for Death Rate (%) / Hurting Rate (%): average after three days, paper mat", "description": "The glutinous solutions with different SDS densities (100, 500, 1000, 2000, 5000, 7500, and 10000 ppm) are prepared in advance, and the paper mat made by YUEN FOONG YU PAPER MFG Co., Ltd is also cut into many round boards having a diameter of 9 cm.\nThe test is done by the following steps. At first, each of the round boards is dripped with 2 ml of one of the glutinous solutions respectively. The round boards are dried in an oven at a temperature of 30° C. Then, the soil taken from the paddy field is added with water to simulate the natural environment. Each of the dried SDS-added round boards is bedded on 50 g of the wet soil in a Petri dish respectively. Finally, each of the dishes is added with 10 ml water and put 10 golden apple snails thereon.\nTwo other groups are prepared for comparison. […] All the three groups are observed in a greenhouse.", "key": {"[1]": {"conditions": "Conc. of SDS solution 100 ppm, snail size 3.28 ± 0.43 g/per snail"}, "[2]": {"conditions": "Conc. of SDS solution 500 ppm, snail size 3.28 ± 0.43 g/per snail"}, "[3]": {"conditions": "Conc. of SDS solution 1000 ppm, snail size 3.28 ± 0.43 g/per snail"}, "[4]": {"conditions": "Conc. of SDS solution 2500 ppm, snail size 0.82 ± 0.26 g/per snail"}, "[5]": {"conditions": "Conc. of SDS solution 5000 ppm, snail size 0.82 ± 0.26 g/per snail"}, "[6]": {"conditions": "Conc. of SDS solution 7500 ppm, snail size 0.82 ± 0.26 g/per snail"}, "[7]": {"conditions": "Conc. of SDS solution 10000 ppm, snail size 0.82 ± 0.26 g/per snail"}}, "note": "Marks after values point to notes of the source that are not given here."}
{"smiles": "CCCCCCCCCCCCOS(=O)(=O)[O-].[Na+]", "note": "[SDS, sodium dodecyl sulfate]", "values": [{"measurement": "Death Rate (%)", "setting": "[1]", "value": 0.00, "unit": "%"}, {"measurement": "Hurting Rate (%)", "setting": "[1]", "value": "3.33* %"}, {"measurement": "Death Rate (%)", "setting": "[2]", "value": 3.33, "unit": "%"}, {"measurement": "Hurting Rate (%)", "setting": "[2]", "value": 6.67, "unit": "%"}, {"measurement": "Death Rate (%)", "setting": "[3]", "value": 10.00, "unit": "%"}, {"measurement": "Hurting Rate (%)", "setting": "[3]", "value": 23.33, "unit": "%"}, {"measurement": "Death Rate (%)", "setting": "Conc. of SDS solution 2000 ppm, snail size 3.28 ± 0.43 g/per snail", "value": 10.00, "unit": "%"}, {"measurement": "Death Rate (%)", "setting": "[4]", "value": 100.00, "unit": "%"}, {"measurement": "Hurting Rate (%)", "setting": "[4]", "value": "100.00* %"}, {"measurement": "Death Rate (%)", "setting": "[5]", "value": 100.00, "unit": "%"}, {"measurement": "Hurting Rate (%)", "setting": "[5]", "value": 100.00, "unit": "%"}, {"measurement": "Death Rate (%)", "setting": "[6]", "value": 100.00, "unit": "%"}, {"measurement": "Hurting Rate (%)", "setting": "[6]", "value": 100.00, "unit": "%"}, {"measurement": "Death Rate (%)", "setting": "[7]", "value": 100.00, "unit": "%"}, {"measurement": "Hurting Rate (%)", "setting": "[7]", "value": 100.00, "unit": "%"}, {"measurement": "hurting rate", "setting": "smaller snails, SDS concentrations above 2500 ppm (summary of Table 2)", "value": "~100.00", "unit": "%"}]}
